Here are results for three molecules from patent US20200101034A1, “RAPID AND CONTROLLED DELIVERY OF COMPOSITIONS WITH RESTORED ENTOURAGE EFFECTS” (RECEPTOR HOLDINGS, INC., priority 2017, published 2020).

Molecules are shown by their SMILES. Where two headings read alike, the source gives them in different places.

The nature of data set [1]: Cannabis/SNAC oral rat pharmacokinetic (PK) study. It is filed as in vivo, rats. The note with it: for AUC(0-t) / Tmax: rat, plasma, po; for AUC(0-t): read-out: AUC0-Tlast; for Tmax: read-out: time to reach the mean maximum plasma concentration (Tmax); for AUC0-Tlast versus the cannabis alone group: rats, oral, same cannabis extract dose in the presence of SNAC (250 mg/kg or 500 mg/kg). On the procedure: Example 4. Summary of cannabis/SNAC oral rat pharmacokinetic (PK) study.
Methods. Animals were dosed on Day 1 and a series of blood samples were collected over a period of 4 hours post dose for pharmacokinetic evaluation. Animals were euthanized following collection of their last blood sample.

The test system of data set [2] is study participants. Briefly: Onset and duration of action of orally administered cannabis/SNAC composition at a low SNAC dose (100 mg). The following applies: 100 mg SNAC with cannabis concentrate, oral. It is filed as in vivo, human. Here is the method:
Example 2. […] This study was designed to assess the utility of SNAC in enabling a rapid-acting oral form of cannabis at a low dose.
Selection of Participants. Three study participants were recruited to ingest cannabis compositions and record the onset, duration, and intensity of cannabis-induced euphoria and/or dysphoria.
(§1) Formulations. The selected cannabis concentrate is commercially available and was provided to participants in an ethanol solution. The concentrate contains 8 mg THC per dose. It was selected because it contains a high percentage of THC, which provides a noticeable effect on user- reported “euphoria”.
(§2) Methods. For the Control experiment, each participant mixed the cannabis concentrate with 15 ml (one tablespoon) of aqueous ethanol, and immediately swallowed the mixture.
(§3) For both the Control experiment and the Test experiment, each participant recorded the time of dose administration, the time of onset of euphoria and/or dysphoria, and the observed level of euphoria and/or dysphoria in fifteen minute intervals for five hours following administration of the cannabis dose. Euphoria and dysphoria were reported using a scale value, in a range from 1-10.
Results. The results are combined with the data from Example 1 and are reported for all participants in FIG. 8.

Data set [3] deals with study participants. Briefly: Onset and duration of action of orally administered cannabis/SNAC composition (200 mg SNAC), participant-reported euphoria/dysphoria. It is filed as in vivo, human. The note with it: 200 mg SNAC with cannabis concentrate, oral. On the procedure: This study was designed to assess the utility of SNAC in enabling a rapid-acting oral form of cannabis.
Selection of Participants. Six study participants were recruited to ingest cannabis compositions and record the onset, duration, and intensity of cannabis-induced euphoria and/or dysphoria.
as §1, §2, §3

Regarding `C=C(C)[C@@H]1CCC(C)=C[C@H]1c1c(O)cc(CCCCC)cc1O` [CBD, cannabidiol], in data set [1], the AUC(0-t) lay in the range of 13.2 to 382 ng·h/mL, the Tmax lay within 0.25 to 1 h and the “AUC0-Tlast versus the cannabis alone group” value is on record as “comparable”.
Consider `O=C([O-])CCCCCCCNC(=O)c1ccccc1O.[Na+]` [SNAC, sodium N-[8-(2-hydroxybenzoyl)amino] caprylate], for which the “effect of the absorption enhancer on the duration of action of cannabis” value in data set [2] and in data set [3] was “no effect” in each case.
`CCCCCc1cc(O)c2c(c1)OC(C)(C)[C@@H]1CCC(C)=C[C@@H]21` [THC, delta-9-tetrahydrocannabinol]: the Tmax in data set [1] (25 mg/kg) was 1 h. In addition, the Tmax in data set [1] (50 mg/kg) worked out at 2 h. Besides, in data set [1], the AUC(0-t) is 171 to 1260 ng·h/mL and the “AUC0-Tlast versus the cannabis alone group” value is “comparable”.
